Test results taken from patent EP0153858A2, “The therapeutic use of prostaglandins” (THE UPJOHN COMPANY, priority 1984, dated 1985).

Assays:
[1] = tested on: endotoxin-induced lung injury; details: infusion of the prostaglandin; cited from earlier work
[2] = tested on: trauma; details: reported experimentally; cited from earlier work
[3] = tested on: patients suffering from ARDS; assay: Prospective randomized double blind placebo controlled study of PGE1 infusion in ARDS patients (Example 1); type: in vivo, human; details: 30 days after discontinuing the infusion; i.v. 5 ng/kg/min increased to 30 ng/kg/min, for 7 days or until extubated; 21 patients
Experimental: An intravenous solution was prepared by mixing one 5 ml ampoule of Prostin VR Pediatric Sterile Solution containing 2.5 mg PGE1 active drug with one liter of D5W or Normal Saline. Dosages of this solution or of a control solution containing only vehicle but no PGE1 were administered to 41 patients suffering from ARDS in a prospective randomized double blind placebo controlled study. PGE1 or the control solution was started at a dose of 5 ng/kg/min and then increased 5 ng/kg/min every 30 minutes until a rate of 30 ng/kg/min was reached.
This dosage was continued for 7 days or until the patient was extubated, whichever came sooner. The survival rate 30 days after discontinuing the infusion was as follows: […]

[4] = tested on: patients with ARDS; assay: Double blind randomized study of PGE1 versus placebo in ARDS patients; survival, and mortality by creatinine/bilirubin level (Example 2); type: in vivo, human; details: 30 ng/kg/min for 7 days; 17 out of 26 patients survived
Experimental: Fifty patients with ARDS were randomized to receive PGE1 (30 ng/kg/min for 7 days) or placebo (equivalent volumes of saline and time) in a double blind study. For entry, patients must have required mechanical ventilation with an inspired oxygen concentration of 40% or more and a positive end respiratory pressure of 5 em of water or more. Most of the patients (70%) were septic. 17 out of 26 patients who had received PGE1 survived (65% survival) while only 7 out of 24 patients who had received placebo survived (29% survival).
The relation between the bilirubin and creatinine levels and the mortality of the patients enrolled in this study is depicted in Table 2. […] Creatinine and bilirubin levels are indicative of kidney and liver function, respectively. The data thus indicate that PGE1 prevents severe kidney and liver damage, and greatly decreases the risk of death, for patients highly susceptible to kidney failure, liver failure, and/or death as a result of trauma, sepsis, shock, and similar catastrophic events.

[5] = tested on: microvascular permeability; details: sheep; cited from earlier work
[6] = tested on: beagles suffering from hemorrhagic shock; details: infusion; cited from earlier work
[7] = tested on: patients with severe postoperative ARDS; details: cited from earlier work

Compound | lung and systemic injury associated with endotoxin infusion [1] | survival rate after trauma [2] | Survival Rate (%) [3] [%] | survival [4] [%] | increase of microvascular permeability [5] | survival rate [6] | lung function of each patient ([7]; 5 patients with severe postoperative ARDS) | patients died of associated problems, including vital organ failure ([7]; of 5 patients with severe postoperative ARDS)
CCCCC[C@H](O)/C=C/[C@@H]1[C@H]2C/C(=C/CCCC(=O)O)O[C@H]2C[C@H]1O [PGI2, prostacyclin] | decreased | beneficial in increasing the survival rate | – | – | – | – | – | –
CCCCC[C@H](O)/C=C/[C@H]1[C@H](O)CC(=O)[C@@H]1CCCCCCC(=O)O [PGE1, Prostaglandin E1] | decreased | – | 71.4 | 65 | Reversal | improved | improved | three
